Values of other authors in patent US7718201B2, “Method of inducing liver phase II enzymes” (Access Business Group International LLC, priority 2005, dated 2010).

Tested on: quinone reductase in Hepa1c1c7 cells
Conditions: reference values; broccoli dependent on variety, form, extraction conditions

C[S+]([O-])CCCCN=C=S (stereo not shown) [sulforaphane]
Phase II enzyme induction activity (reported): 10^6 U/g
